Tests used:
Type in all cases: cell-based
[1] = molecular target: T1, long form of human GPR120 (Homo sapiens, UniProt Q5NUL3); assay: Human GPR120 DiscoveRx PathHunter Beta-Arrestin Assay, Procedure β-arrestin A (3000 cells per well); details: read-out: GPR120 B-arrestin A EC50
T1 construct: host or cells: PathHunter CHO-K1 GPR120 β-Arrestin Cell Line
T1 sequence (Q5NUL3 1-377 isoform Q5NUL3-1): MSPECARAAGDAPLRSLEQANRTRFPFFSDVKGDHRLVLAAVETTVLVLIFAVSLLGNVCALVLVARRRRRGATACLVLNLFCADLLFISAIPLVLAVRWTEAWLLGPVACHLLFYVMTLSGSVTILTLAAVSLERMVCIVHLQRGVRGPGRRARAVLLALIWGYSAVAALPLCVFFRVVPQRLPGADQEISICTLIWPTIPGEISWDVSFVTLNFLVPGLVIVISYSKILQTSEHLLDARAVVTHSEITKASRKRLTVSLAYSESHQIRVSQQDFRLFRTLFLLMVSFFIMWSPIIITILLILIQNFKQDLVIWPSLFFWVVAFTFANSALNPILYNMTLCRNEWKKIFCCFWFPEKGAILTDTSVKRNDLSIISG
Source text: (§1) The binding of an agonist (medium/long chain fatty acids or small molecule agonists) to the G-protein-coupled receptor GPR120 activates phospholipase C, leading to release of intracellular Ca^+2 through the generation of inositol 1,4,5-trisphosphate (InsP3 or IP3). GPR120 activation can also trigger intracellular signaling via recruitment of β-Arrestin. In the present method, agonist-induced activation of the human GPR120 receptor is monitored through the use of PathHunter CHO-K1 GPR120 β-Arrestin Cell Line engineered by DiscoveRx, as detailed below. The cell lines are designed to co-express both the ProLink/Enzyme Donor (PK)-tagged GPCR and the Enzyme Activator (EA)-tagged β-Arrestin fusion proteins. Upon GPR120 receptor stimulation/activation, the EA-tagged β-Arrestin portion is translocated to the tagged receptor, where the two enzyme fragments are brought within close proximity. Under these conditions, these fragments can interact and form an active Beta-gal enzyme complex through Enzyme Fragment Complementation (EFC). This active Beta-gal complex can enzymatically hydrolyse the substrate to produce a detectable light signal; therefore, activation as a function of agonist concentration can be expressed as an EC50 value to determine relative compound activities. This in vitro assay therefore serves to assess compound agonist activity of the GPR120.
In Procedure β-arrestin A, the cell used were PathHunter CHO-K1 GPR120 β-Arrestin Cell Line, expressing the long form of human GPR120 (Genbank accession number NM_181745), with 3000 cells per well.
(§2) The selected CHO-K1 GPR120 β-Arrestin cells were cultured in Ham's F12 media supplemented with 10% fetal bovine serum (FBS), 1% Glutamine, 1×p/s, 800 μg/ml G418 and 300 μg/ml Hygromycin B (for selection). Cell stocks were maintained and grown in a sub-confluent state using standard cell culture procedures. The day before the experiment, the cells were harvested with non-enzymatic cell dissociation buffer and re-suspended in complete growth media at the desired concentration. A Corning 384-plate was then seeded with the proper number of cells in a volume of 25 μL, per well. The seeded plates were incubated overnight at 37° C.
(§3) On the day of the experiment, the Assay Buffer containing (a) HBSS with Ca^++ and Mg^++, (b) 20 mM HEPES, and (c) 0.1% BSA stabilizer (pH 7.4) was prepared. The growth medium was gently removed from the cell plates and 20 μL of Assay Buffer added to each well. The plate was then incubated at 37° C. for 60 mins. Test compounds were serially diluted in Assay Buffer to desired concentrations (more particularly, to one or more of the following μM concentrations: 25 μM, 12.5 μM, 6.25 μM, 3.125 μM, 1.562 μM, 0.781 μM, 0.391 μM, 0.195 μM, 0.098 μM, 0.049 μM, 0.024 μM, 0.012 μM). Five μl of compound dilution was then added to each well and the plate incubated at 37° C. for 90 mins. The detection reagents were prepared according to the manufacture's instruction. Twelve μL of the detection reagents were added to each well and the plate incubated at room temperature for 60 mins.
(§4) The plates were read on an EnVision instrument, using Protocol name: Luminescence, Plate type: 384 Costar, Measurement height: 3 mm, Measurement time: 1 s, Aperture: 384 Plate aperture. The % activity relative to the positive control was calculated using the following equation:
(§5) The % Activity values were plotted versus the concentration of test compound and fitted to a sigmoidal dose-response curve with a Hill slope=1 (fixed value) using nonlinear regression with GraphPad Prism 5.0 to calculate the EC50 values. The Fitting Equation was: Y=Bottom+(Top−Bottom)/(1+10^((LogEC50−X)*HillSlope)), where X is the log of the concentration and Y is the response.

[2] = molecular target: T2, short form of the GPR120 receptor (Homo sapiens, UniProt Q5NUL3); assay: Human GPR120 DiscoveRx PathHunter Beta-Arrestin Assay, Procedure β-arrestin B (5000 cells/well)
T2 construct: host or cells: PathHunter CHO-K1 GPR120S β-Arrestin Cell Line
T2 sequence (Q5NUL3 1-361): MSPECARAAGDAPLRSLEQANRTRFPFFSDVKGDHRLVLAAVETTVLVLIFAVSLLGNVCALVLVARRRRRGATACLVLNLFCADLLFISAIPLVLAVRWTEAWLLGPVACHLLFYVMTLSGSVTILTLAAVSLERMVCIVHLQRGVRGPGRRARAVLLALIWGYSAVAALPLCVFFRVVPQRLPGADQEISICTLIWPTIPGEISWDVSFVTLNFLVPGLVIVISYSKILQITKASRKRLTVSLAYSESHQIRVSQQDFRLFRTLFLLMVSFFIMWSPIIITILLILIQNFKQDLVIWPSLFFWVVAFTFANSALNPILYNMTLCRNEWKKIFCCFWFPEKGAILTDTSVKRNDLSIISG
Source text: as §1
In Procedure β-arrestin B the cells used were PathHunter CHO-K1 GPR120S β-Arrestin Cell Line, expressing the short form of the GPR120 receptor (Accession #NM_181745), with 5000 cells/well.
as §2, §3, §4, §5

Human GPR120 short form = molecular target: T3, Human GPR120 short form (Homo sapiens, UniProt Q5NUL3); assay: Human GPR120 in Calcium Flux Assay, Procedure Calcium A (2500 cells/well)
T3 construct: expressed in transfected cells
T3 sequence (Q5NUL3 1-361): T2 sequence (Q5NUL3 1-361)
Source text: This in vitro assay serves to assess test compound agonist activity against the short splice variant (SVS with Accession number NM_001195755.1 confirmed by sequencing data) of the GPR120 receptor. The Human Short splice variant #2 (NM_001195755.1) is missing an in-frame coding exon compared to variant 1 (the Human Long splice variant NM_181745.3), resulting in a shorter isoform (GPR120-S) lacking a 16 aa protein segment compared to isoform GPR120-L. The assay platform utilizes HEK-293 cells stably transfected to express the Human GPR120 short form. These cells are first loaded with the Ca^+2 sensitive dye, Fluo-4 NW. Upon stimulation, intracellular released Ca^+2 can bind to the dye and alter its fluorescence intensity. This increase in fluorescence signal, and thus the flux in intracellular [Ca^+2], is detected and quantitated by fluorescence imaging using a FLIPR reader. The effect of the agonist is measured as a function of concentration and used to calculate an EC50 based upon a response curve.
In this procedure 2500 cells/well were employed.
A Human GPR120 clone (Genbank accession number NM_001195755.1) was placed into the pcDNA3.1 mammalian expression vector carrying the neomycin resistance gene. A stable mammalian cell was generated by placing the above clone into a HEK293 background. Clonal cells responding to long chain fatty acids had expression levels of GPR120 confirmed by RT-qPCR. Human HEK-GPR120 cells were cultured in Dulbecco's Modified Eagle's Medium (DMEM)/F12 medium supplemented with 10% fetal bovine serum (FBS), 1% L-Glutamine and 1% penicillin/streptomycin and 0.5 mg/ml G-418. Cells were split 2 times a week to keep the cells in the log-phase growth.
In preparation for the assay, HEK cells stably transfected with Human GPR120 (2.5K cells per well in 25 uL growth medium) were seeded into 384-well plates and then incubated overnight (37° C., 5% CO2). The next day, the media was changed to 20 μl assay buffer and the cell starved for 1 h at 37° C. The dye loading solution (2× dye) was prepared using 10 ml assay buffer, 100 μl of 250 mM probenecid, 1 bottle of Component A, and 20 μl of dye in DMSO. Twenty μl of the 2× dye loading buffer was then added to each well. The plates were incubated at 37° C. for 30 min, then at room temperature for an additional 15 minutes, before performing the assay on FLIPR.
Test compounds were prepared in assay buffer (2 μl of test compound+198 μl assay buffer, final DMSO in assay plate is 0.2%) at the desired concentration, more particularly at 100 μM, 50 μM, 25 μM, 12.5 μM, 6.25 μM, 3.125 μM, 1.562 μM, 0.781 μM, 0.391 μM, 0.195 μM, 0.098 μM, 0.049 μM, 0.024 μM and 0.012 μM.
The assay was performed on a FLIPR plate reader using the following parameters. Baseline was read for 10 seconds at 1 sec intervals. The program was set to transfer 10 μL of ligand from compound plate to cell plate after baseline reading. Aspiration was executed at: 10 μl/sec speed, 4.6 μl height; Dispensing was executed at: 30 μl/sec speed, 45 μl height. After compound addition, each well was read for 300 sec, with measurements collected at 1 sec intervals.
The kinetic data from the FLIPR was based upon a 5 minute window for data collection. The fluorescence of each sample well was used for individual calculations of a normalized RFU value, which was defined as maximum response minus the minimum response. The normalized fluorescence reading (RFU) was calculated as follows: RFU=Fmax−Fmin
The data were fitted to a sigmoidal dose-response curve with a variable Hill slope (<2) using nonlinear regression with GraphPad Prism 5.0 to calculate the EC50 values. The Fitting Equation was: Y=Bottom+(Top−Bottom)/(1+10^((LogEC50−X)*HillSlope)), where X is the log of the concentration and Y is the response.

EC50 [1]	EC50 [2]	EC50 (Human GPR120 short form)	SMILES
	237 nM	65 nM	Cc1nc2c(COc3ccc(CCC(=O)O)c(C)c3C)cc(OC(F)(F)F)cc2s1 [Compound 118, 3-(2,3-Dimethyl-4-{[2-methyl-6-(trifluoromethoxy)-1,3-benzothiazol-4-yl]methoxy}phenyl)propanoic acid]
	1440 nM		Cc1c(CCC(=O)O)ccc(OCc2cc(Cl)cc3sc(C(F)(F)F)nc23)c1C [Compound 119, 3-(4-{[6-Chloro-2-(trifluoromethyl)-1,3-benzothiazol-4-yl]methoxy}-2,3-dimethylphenyl)propanoic acid]
	681 nM	422 nM	Cc1c(CCC(=O)O)ccc(OCc2cc(F)cc3sc(C(F)(F)F)nc23)c1C [Compound 117, 3-(4-{[6-Fluoro-2-(trifluoromethyl)-1,3-benzothiazol-4-yl]methoxy}-2,3-dimethylphenyl)propanoic acid]
	772 nM	468 nM	Cc1c(CCC(=O)O)ccc(OCc2cc(F)cc3sc(CC(C)C)nc23)c1C [Compound 115, 3-(4-{[6-Fluoro-2-(2-methylpropyl)-1,3-benzothiazol-4-yl]methoxy}-2,3-dimethylphenyl)propanoic acid]
	1190 nM	382 nM	Cc1nc2cc(Cl)cc(COc3ccc(CCC(=O)O)c(C)c3C)c2s1 [Compound 121, 3-{4-[(5-Chloro-2-methyl-1,3-benzothiazol-7-yl)methoxy]-2,3-dimethylphenyl}propanoic acid]

Second part, the molecule before the results:

SMILES	EC50 [1]	EC50 [2]	EC50 (Human GPR120 short form)
Cc1oc2cccc(COc3ccc(CCC(=O)O)c(F)c3F)c2c1C [Compound 1, 3-{4-[(2,3-Dimethyl-1-benzofuran-4-yl)methoxy]-2,3-difluorophenyl}propanoic acid]	> 20 µM		
Cc1cc2cc(OC(F)(F)F)cc(COc3ccc(CCC(=O)O)c(C(F)(F)F)c3)c2o1 [Compound 112, 3-[4-{[2-Methyl-5-(trifluoromethoxy)-1-benzofuran-7-yl]methoxy}-2-(trifluoromethyl)phenyl]propanoic acid]		110 nM	121 nM
Cc1cc2c(COc3ccc(CCC(=O)O)c(F)c3F)cccc2o1 [Compound 6, 3-{2,3-Difluoro-4-[(2-methyl-1-benzofuran-4-yl)methoxy]phenyl}propanoic acid]	> 20 µM		
CCCc1cc2cc(C(C)(F)F)cc(COc3ccc(CCC(=O)O)c(C)c3C)c2o1 [Compound 79, 3-(4-{[5-(1,1-Difluoroethyl)-2-propyl-1-benzofuran-7-yl]methoxy}-2,3-dimethylphenyl)propanoic acid]	2.22 µM		

Reference: US9562053B2, “Benzo-fused heterocyclic derivatives useful as agonists of GPR120” (Janssen Pharmaceutica NV, priority 2013, dated 2017)
